Read-outs that look alike come from different tables or passages of the source.
Columns and labels:
LRRK2 = experiment: In vitro autoradiography, NHP brain slices; type: binding; details: baseline
Description: Whole brain hemispheres were sectioned into horizontal slices with a thickness of 100 µm using a Leica cryomacrocut system. The autoradiographic procedures followed the same protocols established in previous studies conducted in our laboratory. The whole-hemisphere sections of 100 micron thickness were incubated for 90 min at room temperature with their corresponding radiotracer (4 MBq/200 mL) in TRIS buffer (pH 7.4) containing sodium chloride (120 mM), potassium chloride (5 mM), calcium chloride (2 mM), and albumin (0.1% w/v). After incubation, sections were washed three times in the same buffer at room temperature for five minutes each, briefly dipped in ice-cold distilled water, dried, and then placed in the phosphor imaging plates. Binding density standards were prepared by serial dilution of the radioligand stock solution in the assay buffer. Readings were taken with the Fujifilm BAS-5000 (Fujifilm, Tokyo, Japan), while quantitative analysis was conducted with the Multi Gauge 3.2 image analysis software (Fujifilm, Tokyo, Japan). For blocking experiments, adjacent brain sections were co-incubated with LuAF66583 (0.1 µM or 10 µM). […] The thickness differed from human tissue (20 µm).

[1] = Plasma protein binding by ultrafiltration; type: in vitro ADME, non-human primate (NHP); details: cynomolgus monkey, pH 7.4, NHP plasma, baseline
Description: The plasma protein binding of all three radioligands was determined in duplicate at the baseline condition according to a previously published method. For each blood plasma sample, 500 μL of non-human primate (NHP) blood plasma was used with 50 μL PBS (pH 7.4 containing KCl 0.2 mg, KH2PO4 0.2 mg, Na2HPO4 1.42 mg, and NaCl 8 mg per mL). The mixture included around 20 MBq of the corresponding radioligand in PBS. Samples underwent incubation at room temperature for 10 min. A small aliquot (20 µL) was taken from each mixture, and radioactivity measurements were performed using a well counter. From each mixture, 200 µL was placed into ultrafiltration tubes (Millipore Centrifree YM-30) and centrifuged at 3000 rpm for 15 minutes. The remaining filtrates were analyzed and aliquots (20 µL) were counted in the well counter described earlier. Protein-bound fractions were calculated as follows:(1) C⥂pla (filtrate) /Cpla (total) ÷CPBS (filtrate) /CPBS (total) ×100(%)
Cpla (total) represents the radioactivity concentration of incubation mixture in plasma and CPBS (total) represents the radioactivity concentration of incubation mixture in PBS. Cpla (filtrate) and CPBS (filtrate) are the radioactivity concentrations from filtrate samples.

[2] = Radiometabolite analysis in monkey plasma (gradient HPLC); type: in vivo, cynomolgus monkey; details: baseline PET
Description: The technique published earlier was utilized for the analysis of radiometabolites in NHP blood plasma. During the entire PET measurement, the percentage of the injected radioligand and its corresponding radioactive metabolites and radioactivity was measured with a reverse-phase HPLC system with UV absorbance detector (λ = 254 nm) and a radioactive detector. […] The blood samples were centrifuged at 4000 rpm for 2 min to separate plasma. From the centrifuged plasma, the resulting plasma was withdrawn and spiked with 1.4 times its volume of acetonitrile before being spun at 6000 rpm for 4 min. The supernatant, collected after the spun at 6000 rpm, was diluted with 3 mL of water, which was then injected into the HPLC system. The HPLC system was constructed with an Agilent 1200 series binary pump (Agilent, Santa Clara, CA, USA), a Rheodyne 7725i (Thermo Scientific, Waltham, MA, USA) manual injection valve, a 5.0 mL loop, and an Oyokoken S-2493Z radiation detector (Oyokoken, Tokyo, Japan) fitted with 50 mm lead shielding, which houses the detector. Chromatographic separation of the radiometabolites from the unchanged radioligand was performed via gradient elution on a semi-preparative reverse-phase ACE 5 µm C18 HL column (250 × 10 mm) using a mobile phase of acetonitrile (A) and ammonium formate 0.1 M (B). A flow rate of 5.0 mL/min was utilized according to the program 0–6.0 min: (A/B) 40:60 → 90:10 v/v; 6.0–10.0 min: (A/B) 90:10 (v/v). The radioactive peak corresponding to the parent radioligand was then integrated from the data output of the HPLC column. The area of this peak was calculated relative to the total area detected for all radioactive compounds. To evaluate the radioactivity recovery from the system, the measurement was taken from a 2 mL aliquot of the eluate taken from the HPLC column and measured against the total injected radioactivity.

[3] = Stability of formulated radioligand in PBS (analytical HPLC); type: physicochemical; details: pH 7.4, for 120 min
Description: The radiochemical purity and stability of all three radioligands ([^11C]3, [^18F]1 and [^18F]2) were determined using analytical HPLC coupled with an XBridge analytical column (C18 5 µm, 4.6 × 150 mm particle size), a Merck-Hitachi L-7100 pump, an L-7400 UV detector, and a GM tube for radioactivity detection (VWR International). A mixture of acetonitrile (25%) and HCO2NH4 (0.1 M aq. solution) (75%) with a flow rate of 2 mL/min was used as HPLC isocratic mobile phase. The HPLC liquid flow was monitored using a UV absorbance detector (λ = 254 nm) in conjunction with a radioactive detector (BETA-flow, Beckman, Fullerton, CA, USA). All three radioligands were eluted with a retention time (tR) of 4.0–4.5 min, and the total run time of the HPLC program was 9 min. The identity of the radiolabeled compound was confirmed by co-injecting the corresponding authentic reference standard.

[4] = read-out: Free fraction in plasma (fP)
[5] = read-out: Plasma protein binding (converted)

Compound	Binding of radioligand in brain slices (ARG) (LRRK2)	fraction unbound at 10 min [1, 4]	fraction unbound at 10 min [1, 5]	Parent compound, share of eluted plasma radioactivity ([2]; at 5 min)	Parent compound, share of eluted plasma radioactivity ([2]; at 90 min)	Stability in PBS buffer [3]
C[C@@H]1C[C@@H]([18F])CN1c1c(C#N)c2c(N)nccc2n1C [[^18F]1, 4-Amino-2-((2R,4R)-4-[^18F]fluoro-2-methylpyrrolidin-1-yl)-1-methyl-1H-pyrrolo[3,2-c]pyridine-3-carbonitrile]	clear binding	~0.45	~0.45	over 90%	around 10%	demonstrated stability
C[C@@H]1C[C@@H]([18F])CN1c1c(C#N)c2c(N)ncnc2n1C [[^18F]2, 4-Amino-6-((2R,4R)-4-[^18F]fluoro-2-methyl Pyrrolidin-1-yl)-7-methyl-7H-pyrrolo[2,3-d]pyrimidine-5-carbonitrile]	displayed binding	~0.6	~0.6	over 90%	around 10%	demonstrated stability

From publication PMC12735872, “Development of ^18F/^11C-Labeled Pyrrolo-Pyridine/Pyrimidine LRRK2 Selective PET Radioligands” (Pharmaceuticals, 2025)
